Data taken from patent US20230167073A1 (Teijin Pharma Limited, priority 2020, published 2023).

Biological target: T1, Human TRPC6 (Homo sapiens, UniProt Q9Y210)
T1 construct: expressed in transfected cells
T1 sequence (Q9Y210 1-931): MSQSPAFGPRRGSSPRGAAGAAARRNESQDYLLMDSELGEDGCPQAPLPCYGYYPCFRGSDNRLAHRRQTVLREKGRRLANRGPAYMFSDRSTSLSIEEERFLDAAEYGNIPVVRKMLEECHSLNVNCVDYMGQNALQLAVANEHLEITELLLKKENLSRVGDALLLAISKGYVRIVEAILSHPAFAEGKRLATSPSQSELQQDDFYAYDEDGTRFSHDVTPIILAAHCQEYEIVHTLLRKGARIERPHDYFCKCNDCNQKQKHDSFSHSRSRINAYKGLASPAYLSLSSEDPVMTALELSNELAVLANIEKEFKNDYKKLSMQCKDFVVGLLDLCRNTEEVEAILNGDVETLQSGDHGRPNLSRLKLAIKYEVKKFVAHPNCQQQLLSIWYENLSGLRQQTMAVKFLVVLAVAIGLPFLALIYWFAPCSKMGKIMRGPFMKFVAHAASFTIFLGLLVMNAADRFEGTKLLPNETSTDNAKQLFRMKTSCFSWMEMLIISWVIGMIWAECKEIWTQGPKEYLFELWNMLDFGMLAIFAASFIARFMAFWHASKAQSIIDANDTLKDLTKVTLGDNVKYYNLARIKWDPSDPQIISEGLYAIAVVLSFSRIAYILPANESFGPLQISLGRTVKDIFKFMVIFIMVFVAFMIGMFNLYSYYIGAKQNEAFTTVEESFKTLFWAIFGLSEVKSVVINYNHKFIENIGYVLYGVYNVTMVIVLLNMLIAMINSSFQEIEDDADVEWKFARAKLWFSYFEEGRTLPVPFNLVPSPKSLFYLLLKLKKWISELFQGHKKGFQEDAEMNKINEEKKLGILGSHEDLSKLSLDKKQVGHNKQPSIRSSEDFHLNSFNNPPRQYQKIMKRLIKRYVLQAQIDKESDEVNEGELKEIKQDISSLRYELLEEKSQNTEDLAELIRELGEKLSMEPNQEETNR
Assay: Evaluation of TRPC6 channel inhibitory activity (1), FLIPR Calcium 5 Assay Kit, OAG stimulation (Compound Nos. 1-1293)
Type: cell-based
Settings: Human TRPC6 stably-expressing cells, OAG 30 μM, FLIPR Calcium 5 Assay Kit; read-out: Inhibitory activity (pIC50 class) (converted)
Method in brief: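 The FLIPR signal is maximum fluorescence after 30 μM OAG minus minimum before compound, measured in a human TRPC6 stable line loaded with Calcium 5 dye. Compounds were preincubated 20 min. pIC50 came from four-parameter logistic fitting of inhibition rates and is given as symbol ranges.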

Row | Structure (SMILES) | IC50 [nM]
1 | NCCc1cnc(-c2ccc(F)cc2C(=O)c2cnn(CC3CC3)c2)nc1 [compound 1101, [2-[5-(2-aminoethyl)pyrimidin-2-yl]-5-fluorophenyl]-[1-(cyclopropylmethyl)pyrazol-4-yl]methanone] | 10 to 1000
2 | CC(C)n1cc(C(=O)c2cc(F)ccc2-c2ncc(CCN)cn2)cn1 [compound 1102, [2-[5-(2-aminoethyl)pyrimidin-2-yl]-5-fluorophenyl]-(1-propan-2-ylpyrazol-4-yl)methanone] | 10 to 1000
3 | Cc1nc(C(=O)c2cc(F)ccc2-c2ncc(CCN)cn2)cc(N2CCOCC2)n1 [compound 1103, [2-[5-(2-aminoethyl)pyrimidin-2-yl]-5-fluorophenyl]-(2-methyl-6-morpholin-4-ylpyrimidin-4-yl)methanone] | 10 to 1000
4 | Cc1nc(C(=O)c2cc(F)ccc2-c2ncc(CN)cn2)cc(N2CCOCC2)n1 [compound 1104, [2-[5-(aminomethyl)pyrimidin-2-yl]-5-fluorophenyl]-(2-methyl-6-morpholin-4-ylpyrimidin-4-yl)methanone] | > 1000
5 | Cn1nc(N2CCOCC2)cc1C(=O)c1cc(F)ccc1-c1ncc(CN)cn1 [compound 1105, [2-[5-(aminomethyl)pyrimidin-2-yl]-5-fluorophenyl]-(2-methyl-5-morpholin-4-ylpyrazol-3-yl)methanone] | 10 to 1000
6 | Cn1nc(N2CCOCC2)cc1C(=O)c1cc(F)ccc1-c1ccc(CCN)cn1 [compound 1106, [2-[5-(2-aminoethyl)pyridin-2-yl]-5-fluorophenyl]-(2-methyl-5-morpholin-4-ylpyrazol-3-yl)methanone] | < 10
7 | Cn1nc(N2CCOCC2)cc1C(=O)c1cc(F)ccc1-c1ncc(CCN)cn1 [compound 1107, [2-[5-(2-aminoethyl)pyrimidin-2-yl]-5-fluorophenyl]-(2-methyl-5-morpholin-4-ylpyrazol-3-yl)methanone] | < 10
8 | NCCc1cnc(-c2ccc(F)cc2C(=O)c2cnn(C3CCC3)c2)nc1 [compound 1108, [2-[5-(2-aminoethyl)pyrimidin-2-yl]-5-fluorophenyl]-(1-cyclobutylpyrazol-4-yl)methanone] | 10 to 1000
9 | NCc1cnc(-c2ccc(F)cc2C(=O)c2cnn(C3CCC3)c2)nc1 [compound 1109, [2-[5-(aminomethyl)pyrimidin-2-yl]-5-fluorophenyl]-(1-cyclobutylpyrazol-4-yl)methanone] | 10 to 1000
10 | NCCc1ccc(-c2ccc(F)cc2C(=O)c2cnn(C3CCC3)c2)nc1 [compound 1110, [2-[5-(2-aminoethyl)pyridin-2-yl]-5-fluorophenyl]-(1-cyclobutylpyrazol-4-yl)methanone] | < 10
11 | CC(C)NC(=O)c1cn(Cc2cc(C#N)ccc2-c2ccc(CCN)cc2)cn1 [compound 1113, 1-[[2-[4-(2-aminoethyl)phenyl]-5-cyanophenyl]methyl]-N-propan-2-ylimidazole-4-carboxamide] | > 1000
12 | CC(C)CNC(=O)c1cn(Cc2cc(C#N)ccc2-c2ccc(CCN)cc2)cn1 [compound 1114, 1-[[2-[4-(2-aminoethyl)phenyl]-5-cyanophenyl]methyl]-N-(2-methylpropyl)imidazole-4-carboxamide] | > 1000
13 | CC(C)CNC(=O)c1cncn1Cc1cc(C#N)ccc1-c1ccc(CCN)cc1 [compound 1115, 3-[[2-[4-(2-aminoethyl)phenyl]-5-cyanophenyl]methyl]-N-(2-methylpropyl)imidazole-4-carboxamide] | > 1000
14 | COCc1cncn1Cc1cc(C#N)ccc1-c1ccc(CCN)cc1 [compound 1116, 4-[4-(2-aminoethyl)phenyl]-3-[[5-(methoxymethyl)imidazol-1-yl]methyl]benzonitrile] | > 1000
15 | CC(C)COCc1cncn1Cc1cc(C#N)ccc1-c1ccc(CCN)cc1 [compound 1117, 4-[4-(2-aminoethyl)phenyl]-3-[[5-(2-methylpropoxymethyl)imidazol-1-yl]methyl]benzonitrile] | 10 to 1000
16 | CC(C)COCc1cn(Cc2cc(C#N)ccc2-c2ccc(CCN)cc2)cn1 [compound 1119, 4-[4-(2-aminoethyl)phenyl]-3-[[4-(2-methylpropoxymethyl)imidazol-1-yl]methyl]benzonitrile] | 10 to 1000
17 | CCCc1nccn1Cc1cc(C#N)ccc1-c1ccc(CCN)cc1 [compound 1121, 4-[4-(2-aminoethyl)phenyl]-3-[(2-propylimidazol-1-yl)methyl]benzonitrile] | > 1000
18 | Cc1nc(-c2ccc(C(F)(F)F)cc2)cn1Cc1cc(C#N)ccc1-c1ccc(CCN)cc1 [compound 1125, 4-[4-(2-aminoethyl)phenyl]-3-[[2-methyl-4-[4-(trifluoromethyl)phenyl]imidazol-1-yl]methyl]benzonitrile] | > 1000
19 | Cc1nc(COC(C)C)cn1Cc1cc(C#N)ccc1-c1ccc(CCN)cc1 [compound 1126, 4-[4-(2-aminoethyl)phenyl]-3-[[2-methyl-4-(propan-2-yloxymethyl)imidazol-1-yl]methyl]benzonitrile] | > 1000
20 | Cc1nc(-c2ccccc2)cn1Cc1cc(C#N)ccc1-n1cc(C(O)CN)cn1 (stereo not drawn) [compound 1128, 4-[4-(2-amino-1-hydroxyethyl)pyrazol-1-yl]-3-[(2-methyl-4-phenylimidazol-1-yl)methyl]benzonitrile] | > 1000

The remaining lines, values ahead:

Row | IC50 [nM] | Structure (SMILES)
21 | 10 to 1000 | N#Cc1ccc(-c2ccc(CCN)cc2)c(Cn2cnc(-c3ccccc3)c2)c1 [compound 1111, 4-[4-(2-aminoethyl)phenyl]-3-[(4-phenylimidazol-1-yl)methyl]benzonitrile]
22 | > 1000 | N#Cc1ccc(-c2ccc(CCN)cc2)c(Cn2ccc(-c3ccccc3)n2)c1 [compound 1112, 4-[4-(2-aminoethyl)phenyl]-3-[(3-phenylpyrazol-1-yl)methyl]benzonitrile]
23 | > 1000 | COCc1cn(Cc2cc(C#N)ccc2-c2ccc(CCN)cc2)cn1 [compound 1118, 4-[4-(2-aminoethyl)phenyl]-3-[[4-(methoxymethyl)imidazol-1-yl]methyl]benzonitrile]
24 | < 10 | Cc1nc(-c2ccccc2)cn1Cc1cc(C#N)ccc1-c1ccc(CCN)cc1 [compound 1120, 4-[4-(2-aminoethyl)phenyl]-3-[(2-methyl-4-phenylimidazol-1-yl)methyl]benzonitrile]
25 | > 1000 | N#Cc1ccc(-c2ccc(CCN)cc2)c(Cn2cnc(-n3ccnn3)c2)c1 [compound 1122, 4-[4-(2-aminoethyl)phenyl]-3-[[4-(triazol-1-yl)imidazol-1-yl]methyl]benzonitrile]
26 | > 1000 | N#Cc1ccc(-c2ccc(CCN)cc2)c(Cn2cnc(-n3cnnn3)c2)c1 [compound 1123, 4-[4-(2-aminoethyl)phenyl]-3-[[4-(tetrazol-1-yl)imidazol-1-yl]methyl]benzonitrile]
27 | > 1000 | N#Cc1ccc(-c2ccc(CCN)cc2)c(Cn2cnc(-c3ccc(C(F)(F)F)cc3)c2)c1 [compound 1124, 4-[4-(2-aminoethyl)phenyl]-3-[[4-[4-(trifluoromethyl)phenyl]imidazol-1-yl]methyl]benzonitrile]
28 | > 1000 | N#Cc1ccc(-n2cc(C(O)CN)cn2)c(Cn2cnc(-c3ccccc3)c2)c1 (stereo not drawn) [compound 1127, 4-[4-(2-amino-1-hydroxyethyl)pyrazol-1-yl]-3-[(4-phenylimidazol-1 yl)methyl]benzonitrile]
29 | < 10 | N#Cc1ccc(-c2ccc(C(O)CN)cc2)c(Cn2cnc(-c3ccccc3)c2)c1 (stereo not drawn) [compound 1129, 4-[4-(2-amino-1-hydroxyethyl)phenyl]-3-[(4-phenylimidazol-1-yl)methyl]benzonitrile]
30 | < 10 | Cc1nc(-c2ccccc2)cn1Cc1cc(C#N)ccc1-c1ccc(C(O)CN)cc1 (stereo not drawn) [compound 1130, 4-[4-(2-amino-1-hydroxyethyl)phenyl]-3-[(2-methyl-4-phenylimidazol-1-yl)methyl]benzonitrile]
31 | 10 to 1000 | N#Cc1ccc(-c2ccc(CCN)nc2)c(Cn2cnc(-c3ccccc3)c2)c1 [compound 1132, 4-[6-(2-aminoethyl)pyridin-3-yl]-3-[(4-phenylimidazol-1-yl)methyl]benzonitrile]
32 | > 1000 | N#Cc1ccc(-c2ccc(C(O)CN)cn2)c(Cn2cncc2-c2ccccc2)c1 (stereo not drawn) [compound 1133, 4-[5-(2-amino-1-hydroxyethyl)pyridin-2-yl]-3-[(5-phenylimidazol-1-yl)methyl]benzonitrile]
33 | > 1000 | N#Cc1ccc(-c2ncc(CCN)cn2)c(Cn2cncc2-c2ccccc2)c1 [compound 1134, 4-[5-(2-aminoethyl)pyrimidin-2-yl]-3-[(5-phenylimidazol-1-yl)methyl]benzonitrile]
